The text below walks through data of US20230079045A1 (priority 2019, published 2023).

Common to all, as to type: cell-based, influenza virus
One experiment has as its system IFV A/PR/8/34. Put plainly: cytopathic effect (CPE) antiviral test in MDCK cells, IFV A/PR/8/34. The conditions noted are these: unidentified influenza virus, PR/8, MDCK, 120 h, read-out: EC50(IFV A/PR/8/34). A general note: Protection from cytopathic effect is a common read-out in antiviral testing.
The subject of the next experiment is IFVA/Weiss/43. Put plainly: cytopathic effect (CPE) antiviral test in MDCK cells, IFVA/Weiss/43. The conditions noted are these: unidentified influenza virus, MDCK, 120 h, read-out: EC50(IFVA/Weiss/43), MDCK cells, CPE method, CCK-8 cell viability, 5 days.
The next experiment deals with IFVA/Mal/302/54. Put plainly: cytopathic effect (CPE) antiviral test in MDCK cells, IFVA/Mal/302/54. The conditions noted are these: unidentified influenza virus, MDCK, 120 h, read-out: EC50(IFVA/Mal/302/54), MDCK cells, CPE method, CCK-8 cell viability, 5 days.

pEC50: −log10 of the molar value.

As for `O=C(Nc1ccc2nc(-c3ccnc(C(=O)N4CCN(C(c5ccccc5)c5nnn(C(F)F)n5)CC4)c3)oc2c1)C1CC1` (racemic) [Compound 104, (R/S)—N-(2-(2-(4-((2-(difluoromethyl)-2H-tetrazol-5-yl)(phenyl)methyl)piperazine-1-carbonyl)pyridin-4-yl)benzo[d]oxazol-6-yl)cyclopropanecarboxamide], the pEC50 is 7.23 in the experiment with IFV A/PR/8/34, 7.92 with IFVA/Weiss/43 and 7.80 with IFVA/Mal/302/54.
For the compound `Cn1cc(-c2ccc3oc(-c4ccnc(C(=O)N5CCN(C(c6ccccc6)c6nnn(C(F)F)n6)CC5)c4)nc3c2)cn1` (racemic) [Compound 105, (R/S)-(4-((2-(difluoromethyl)-2H-tetrazol-5-yl)(phenyl)methyl)piperazin-1-yl)(4-(5-(1-methyl-1H-pyrazol-4-yl)benzo[d]oxazol-2-yl)pyridin-2-yl)methanone], the pEC50 is 7.96 with IFV A/PR/8/34, 8.15 in the experiment with IFVA/Weiss/43 and 8.05 in the experiment on IFVA/Mal/302/54.
The corresponding values for `Cn1ccnc1-c1ccc2nc(-c3ccnc(C(=O)N4CCN(C(c5ccccc5)c5nnn(C(F)F)n5)CC4)c3)oc2c1` (racemic) [Compound 107, (R/S)-(4-((2-(difluoromethyl)-2H-tetrazol-5-yl)(phenyl)methyl)piperazin-1-yl)(4-(6-(1-methyl-1H-imidazol-2-yl)benzo[d]oxazol-2-yl)pyridin-2-yl)methanone] are 8.05, 8.70 and 8.22.
For the compound `CC(C)(F)C(=O)Nc1ccc2oc(-c3ccnc(C(=O)N4CCN(C(c5ccccc5)c5nnn(C(F)F)n5)CC4)c3)nc2c1` (racemic) [Compound 108, (R/S)—N-(2-(2-(4-((2-(difluoromethyl)-2H-tetrazol-5-yl)(phenyl)methyl)piperazine-1-carbonyl)pyridin-4-yl)benzo[d]oxazol-5-yl)-2-fluoro-2-methylpropanamide], the pEC50 with IFV A/PR/8/34 was 7.64; in the experiment with IFVA/Weiss/43 it was 8.70; in the experiment on IFVA/Mal/302/54, 8.22.
As for `[2H]C([2H])([2H])C(C(=O)Nc1ccc2oc(-c3ccnc(C(=O)N4CCN(C(c5ccccc5)c5nnn(C(F)F)n5)CC4)c3)nc2c1)C([2H])([2H])[2H]` (racemic) [Compound 109, (R/S)—N-(2-(2-(4-((2-(difluoromethyl)-2H-tetrazol-5-yl)(phenyl)methyl)piperazine-1-carbonyl)pyridin-4-yl)benzo[d]oxazol-5-yl)-2-(methyl-d3)propanamide], the pEC50 with IFV A/PR/8/34 is 7.92; with IFVA/Weiss/43 it was 8.22; in the experiment on IFVA/Mal/302/54, 7.96.
As for `O=C(c1cc(-c2nc3cc(-c4cnccn4)ccc3o2)ccn1)N1CCN(C(c2ccccc2)c2nnn(C(F)F)n2)CC1` (racemic) [Compound 112, (R/S)-(4-((2-(difluoromethyl)-2H-tetrazol-5-yl)(phenyl)methyl)piperazin-1-yl)(4-(5-(pyrazin-2-yl)benzo[d]oxazol-2-yl)pyridin-2-yl)methanone], the pEC50 with IFV A/PR/8/34 was 7.44; with IFVA/Weiss/43 it was 7.96; in the experiment with IFVA/Mal/302/54, 8.10.
As to `CC(=O)N(C)c1ccc2oc(-c3ccnc(C(=O)N4CCN(C(c5ccccc5)c5nnn(C(F)F)n5)CC4)c3)nc2c1` (racemic) [Compound 113, (R/S)—N-(2-(2-(4-((2-(difluoromethyl)-2H-tetrazol-5-yl)(phenyl)methyl)piperazine-1-carbonyl)pyridin-4-yl)benzo[d]oxazol-5-yl)-N-methylacetamide], the results for the pEC50 in the experiment on IFV A/PR/8/34, in the experiment with IFVA/Weiss/43 and in the experiment on IFVA/Mal/302/54 were 7.70, 7.72 and 7.74, respectively.
`[2H]C([2H])([2H])C(=O)Nc1ccc2oc(-c3ccnc(C(=O)N4CCN(C(c5ccccc5)c5nnn(C(F)F)n5)CC4)c3)nc2c1` (racemic) [Compound 114, (R/S)—N-(2-(2-(4-((2-(difluoromethyl)-2H-tetrazol-5-yl)(phenyl)methyl)piperazine-1-carbonyl)pyridin-4-yl)benzo[d]oxazol-5-yl) Deuterated Acetamide]: the pEC50 was 7.60 in the experiment with IFV A/PR/8/34, 7.72 with IFVA/Weiss/43 and 8.00 in the experiment on IFVA/Mal/302/54.
Consider `O=C(c1cc(-c2nc3cc(-c4nccs4)ccc3o2)ccn1)N1CCN(C(c2ccccc2)c2nnn(C(F)F)n2)CC1` (racemic) [Compound 119, (R/S)-(4-((2-(difluoromethyl)-2H-tetrazol-5-yl)(phenyl)methyl)piperazin-1-yl)(4-(5-(thiazol-2-yl)benzo[d]oxazol-2-yl)pyridin-2-yl)methanone], for which the pEC50 in the experiment on IFV A/PR/8/34 was 7.66; with IFVA/Weiss/43, 8.70; with IFVA/Mal/302/54 it was 8.22.
Take `O=C(Nc1ccc2oc(-c3ccnc(C(=O)N4CCN(C(c5ccccc5)c5nnn(C(F)F)n5)CC4)c3)nc2c1)C1CC1` (stereo not drawn) [Compound 36, N-(2-(2-(4-((2-(difluoromethyl)-2H-tetrazol-5-yl)(phenyl)methyl)piperazine-1-carbonyl)pyridin-4-yl)benzo[d]oxazol-5-yl)cyclopropanecarboxamide]: the pEC50 in the experiment on IFV A/PR/8/34 was 7.77; with IFVA/Weiss/43, 8.40; in the experiment on IFVA/Mal/302/54, 8.00.
As to `Cn1ccnc1-c1ccc2oc(-c3ccnc(C(=O)N4CCN(C(c5ccccc5)c5nnn(C(F)F)n5)CC4)c3)nc2c1` (stereo not drawn) [Compound 72, (4-((2-(difluoromethyl)-2H-tetrazol-5-yl)(phenyl)methyl)piperazin-1-yl)(4-(5-(1-methyl-1H-imidazol-2-yl)benzo[d]oxazol-2-yl)pyridin-2-yl)methanone], the pEC50 in the experiment with IFV A/PR/8/34, in the experiment with IFVA/Weiss/43 and in the experiment with IFVA/Mal/302/54 was 8.40 throughout.
On to `O=C(Nc1ccc2oc(-c3ccnc(C(=O)N4CCN([C@H](c5ccccc5)c5nnn(C(F)F)n5)CC4)c3)nc2c1)[C@@H]1CC1(F)F` [Compound 73, (S)—N-(2-(2-(4-((R)-(2-(difluoromethyl)-2H-tetrazol-5-yl)(phenyl)methyl)piperazine-1-carbonyl)pyridin-4-yl)benzo[d]oxazol-5-yl)-2,2-difluorocyclopropane-1-carboxamide], for which the pEC50 in the experiment with IFV A/PR/8/34 is 8.52; in the experiment with IFVA/Weiss/43 it was 8.70; in the experiment with IFVA/Mal/302/54, 8.22.
The like results for `O=C(Nc1ccc2oc(-c3ccnc(C(=O)N4CCN([C@H](c5ccccc5)c5nnn(C(F)F)n5)CC4)c3)nc2c1)[C@@H]1C[C@@H]1F` [Compound 75, (1S,2S)—N-(2-(2-(4-((R)-(2-(difluoromethyl)-2H-tetrazol-5-yl)(phenyl)methyl)piperazine-1-carbonyl)pyridin-4-yl)benzo[d]oxazol-5-yl)-2-fluorocyclopropane-1-carboxamide] were, in that order, 8.70, 8.70 and 8.22.
The like results for `Cc1nnn(C(c2ccccc2)C2CCN(C(=O)c3cc(-c4nc5cc(NC(=O)[C@@H]6C[C@@H]6F)ccc5o4)ccn3)CC2)n1` (stereo partly drawn) [Compound 85, (1S,2S)-2-fluoro-N-(2-(2-(4-((5-methyl-2H-tetrazol-2-yl)(phenyl)methyl)piperidine-1-carbonyl)pyridin-4-yl)benzo[d]oxazol-5-yl)cyclopropanecarboxamide] were, in that order, 8.40, 8.40 and 8.40.
